Test results: patent publication US20240358693A1, “METHODS OF TREATING PAIN” (Aisa Pharma, Inc., priority 2023, published 2024)

Test system: participants with SSc-RP
Experiment: Scleroderma Health Assessment Questionnaire (SHAQ): disability indices and visual analog scales
Type: in vivo, human
Excerpt: The standard, validated, patient reported outcome measures tool for SSc patients, the Scleroderma Health Assessment Questionnaire (SHAQ), will be used to assess the participant qualify of life. Details are attached in the Appendix. The participant quality of life will be scored, and a disability index calculated for each questionnaire completed by the patient at Screening and each in-clinic visit. The absolute change in participant quality of life from baseline to the end of each dosing period will be calculated similar to frequency data as before.
The SHAQ includes a Raynaud's VAS, which will be reported at screening and each in-clinic visit. The absolute change in Raynaud-VAS, assessed by the participants response to the SHAQ question ‘In the past 7 days, how much have your Raynaud's interfered with your daily activities?’ at baseline and the end of each dosing period will be calculated similar to frequency data as before.
The SHAQ is used to calculate a Disability Index to assess the participant qualify of life. The eight categories assessed by the Disability Index are 1) dressing and grooming, 2) arising, 3) eating, 4) walking, 5) hygiene, 6) reach, 7) grip, and 8) common daily activities. For each of these categories, patients report the amount of difficulty they have in performing two or three specific activities.
There are four possible responses for the Disability Index questions: • Without any difficulty=0 • With some difficulty=1 • With much difficulty=2 • Unable to do=3. • The highest score reported by the patient for any component question of the eight categories determines the score for that category. • If a component question is left blank or the response is too ambiguous to assign a score, then the score for that category is determined by the remaining completed question(s). • If all component questions are blank or if more than one answer is given, then follow up with the respondent is required. • If the respondent's mark is between the response columns, then move it to the closest one. If it's directly between the two, move it to the higher one.
Each of the disability items on the SHAQ has a companion aids/devices variable that is used to record what type(s) of assistance, if any, the participant uses for his/her usual activities. These variables (see below) are coded as follows: • 0=No assistance is needed. • 1=A special device is used by the patient in his/her usual activities. • 2=The patient usually needs help from another person. • 3=The patient usually needs BOTH a special device AND help from another person.
The scoring variables and scoring rules permit the computation of two disability indices, the Standard Disability Index and the Alternative Disability Index.
This question results in a new set of category scores that are computed by adjusting the score for each category, if necessary, based on the patient's use of an aid or device or assistance for that category. If either devices and/or help from another person are checked for a category, the score is set to “2”, unless the score is already “3” (i.e., scores of “0” or “1” are increased to “2”). For example, if the highest score for the dressing category is “1”, and the patient says they use a device for dressing, the computed category score would be “2”. The sum of the computed categories scores is then calculated and divided by the number of categories answered. This gives a score in the 0 to 3 range.
The aid and device variables are not used to calculate the alternative disability index; it is calculated by adding the scores for each of the categories and dividing by the number of categories answered. This gives a score in the 0 to 3 range.
The standard, validated, patient reported outcome measures tool for SSc patients, the SHAQ, was collected at the time points specified in the study schedules (FIG. 2 and FIGS. 4A and 4B) to assess the participant's quality of life. The SHAQ included a Raynaud's VAS that will also be reported separately.

[1] = Cilnidipine 20 mg, PP Population Part A, SSc patients
[2] = Day 12, Cilnidipine 10 mg (N = 4), Patients with Diagnosis of SSc, PP Population Part A
[3] = Day 12, Cilnidipine 20 mg (N = 4), Patients with Diagnosis of SSc, PP Population Part A
[4] = Day 12, Modified ITT, Part A, dose Cilnidipine 10 mg, Tadalafil 5 mg, or 10 mg + 5 mg
[5] = Day 12, Modified ITT, Part A, dose Cilnidipine 20 mg, or 20 mg + Tadalafil 5 mg

`COCCOC(=O)C1=C(C)NC(C)=C(C(=O)OC/C=C/c2ccccc2)C1c1cccc([N+](=O)[O-])c1` (stereo not shown) [Cilnidipine, cilnidipine] was tested, and the “SHAQ Visual Analogue Scale - Finger Ulcers, In-Clinic Visit (Day 12), Mean” value [1] was 0.650, the “SHAQ Visual Analogue Scale - Finger Ulcers, In-Clinic Visit (Day 12), Median” value [1] was 0.350 and the “SHAQ Visual Analogue Scale - Intestinal Problems, In-Clinic Visit (Day 12), Mean” value [1] was 0.850. For the same compound, the “SHAQ Visual Analogue Scale - Intestinal Problems, In-Clinic Visit (Day 12), Median” value [1] was 0.650, the “SHAQ Visual Analogue Scale - Overall Disease Severity, In-Clinic Visit (Day 12), Mean” value [1] was 1.125 and the “SHAQ Visual Analogue Scale - Overall Disease Severity, In-Clinic Visit (Day 12), Median” value [1] was 1.300. For the same compound, the “SHAQ Visual Analogue Scale - Pain, In-Clinic Visit (Day 12), Mean” value [1] was 1.875, the “SHAQ Visual Analogue Scale - Pain, In-Clinic Visit (Day 12), Median” value [1] was 1.400 and the “SHAQ Visual Analogue Scale - Raynaud's, In-Clinic Visit (Day 12), Mean” value [1] was 1.875. For the same compound, the “SHAQ Visual Analogue Scale - Raynaud's, In-Clinic Visit (Day 12), Median” value [1] was 1.250, the “SHAQ Alternative Disability Index, Change from Baseline, Mean” value [2] was 0.063 and the “SHAQ Alternative Disability Index, Change from Baseline, Median” value [2] was 0.000. For the same compound, the “SHAQ Alternative Disability Index, Percent Change from Baseline, Mean” value [2] was 15.87%, the “SHAQ Alternative Disability Index, Percent Change from Baseline, Median” value [2] was 15.87% and the “SHAQ Standard Disability Index, Change from Baseline, Mean” value [2] was 0.000. For the same compound, the “SHAQ Standard Disability Index, Change from Baseline, Median” value [2] was 0.000, the “SHAQ Standard Disability Index, Percent Change from Baseline, Mean” value [2] was 0.00% and the “SHAQ Standard Disability Index, Percent Change from Baseline, Median” value [2] was 0.00%. The “SHAQ Alternative Disability Index, Change from Baseline, Mean” value [3] was 0.000, the “SHAQ Alternative Disability Index, Change from Baseline, Median” value [3] was −0.063 and the “SHAQ Alternative Disability Index, Percent Change from Baseline, Mean” value [3] was 5.56%. The “SHAQ Alternative Disability Index, Percent Change from Baseline, Median” value [3] was −33.33%, the “SHAQ Standard Disability Index, Change from Baseline, Mean” value [3] was −0.063 and the “SHAQ Standard Disability Index, Change from Baseline, Median” value [3] was −0.063. The “SHAQ Standard Disability Index, Percent Change from Baseline, Mean” value [3] was −26.67%, the “SHAQ Standard Disability Index, Percent Change from Baseline, Median” value [3] was −33.33% and the “SHAQ Alternative Disability Index, Change from Baseline, Mean” value [4] was 0.063. For the same compound, the “SHAQ Alternative Disability Index, Change from Baseline, Median” value [4] was 0.000, the “SHAQ Alternative Disability Index, Percent Change from Baseline, Mean” value [4] was 15.87% and the “SHAQ Alternative Disability Index, Percent Change from Baseline, Median” value [4] was 15.87%. For the same compound, the “SHAQ Finger Ulcers, Change from Baseline, Mean” value [4] was −0.425, the “SHAQ Finger Ulcers, Change from Baseline, Median” value [4] was −0.350 and the “SHAQ Finger Ulcers, Percent Change from Baseline, Mean” value [4] was −69.44%. For the same compound, the “SHAQ Finger Ulcers, Percent Change from Baseline, Median” value [4] was −69.44%, the “SHAQ Standard Disability Index, Change from Baseline, Mean” value [4] was 0.0 and the “SHAQ Standard Disability Index, Change from Baseline, Median” value [4] was 0.000. The “SHAQ Standard Disability Index, Percent Change from Baseline, Mean” value [4] was 0.0%, the “SHAQ Standard Disability Index, Percent Change from Baseline, Median” value [4] was 0.00% and the “SHAQ Visual Analog Scale-Breathing Problems, Change from Baseline, Mean” value [4] was −0.300. For the same compound, the “SHAQ Visual Analog Scale-Breathing Problems, Change from Baseline, Median” value [4] was 0.000, the “SHAQ Visual Analog Scale-Breathing Problems, Percent Change from Baseline, Mean” value [4] was −16.00% and the “SHAQ Visual Analog Scale-Breathing Problems, Percent Change from Baseline, Median” value [4] was −16.00%. For the same compound, the “SHAQ Visual Analog Scale-Intestinal Problems, Change from Baseline, Mean” value [4] was −1.875, the “SHAQ Visual Analog Scale-Intestinal Problems, Change from Baseline, Median” value [4] was −1.550 and the “SHAQ Visual Analog Scale-Intestinal Problems, Percent Change from Baseline, Mean” value [4] was −77.37%. For the same compound, the “SHAQ Visual Analog Scale-Intestinal Problems, Percent Change from Baseline, Median” value [4] was −88.00%, the “SHAQ Visual Analog Scale-Pain, Change from Baseline, Mean” value [4] was −0.100 and the “SHAQ Visual Analog Scale-Pain, Change from Baseline, Median” value [4] was 0.000. The “SHAQ Visual Analog Scale-Pain, Percent Change from Baseline, Mean” value [4] was −9.88%, the “SHAQ Visual Analog Scale-Pain, Percent Change from Baseline, Median” value [4] was 0.00% and the “SHAQ Visual Analog Scale-Raynaud's, Change from Baseline, Mean” value [4] was 0.325. The “SHAQ Visual Analog Scale-Raynaud's, Change from Baseline, Median” value [4] was 0.350, the “SHAQ Visual Analog Scale-Raynaud's, Percent Change from Baseline, Mean” value [4] was 11.36% and the “SHAQ Visual Analog Scale-Raynaud's, Percent Change from Baseline, Median” value [4] was −2.27%. For the same compound, the “SHAQ Alternative Disability Index, Change from Baseline, Mean” value [5] was −0.083, the “SHAQ Alternative Disability Index, Change from Baseline, Median” value [5] was −0.125 and the “SHAQ Alternative Disability Index, Percent Change from Baseline, Mean” value [5] was −41.67%. For the same compound, the “SHAQ Alternative Disability Index, Percent Change from Baseline, Median” value [5] was −41.67%, the “SHAQ Finger Ulcers, Change from Baseline, Mean” value [5] was −0.933 and the “SHAQ Finger Ulcers, Change from Baseline, Median” value [5] was 0.000. For the same compound, the “SHAQ Finger Ulcers, Percent Change from Baseline, Mean” value [5] was 35.29%.
